These compounds were tested against T1, JNK1 (Homo sapiens, UniProt P45983) (assay: JNK1 biochemical assays (one or more of: time resolved fluorescence, Z'-LYTE Cascade, radioactive)). Details: tested in one or more of the JNK1 biochemical assays; read-out: Act. Level (JNK1 biochemical assay IC50 activity level).
T1 construct: purchased Carna Biosciences
T1 sequence (P45983 whole entry): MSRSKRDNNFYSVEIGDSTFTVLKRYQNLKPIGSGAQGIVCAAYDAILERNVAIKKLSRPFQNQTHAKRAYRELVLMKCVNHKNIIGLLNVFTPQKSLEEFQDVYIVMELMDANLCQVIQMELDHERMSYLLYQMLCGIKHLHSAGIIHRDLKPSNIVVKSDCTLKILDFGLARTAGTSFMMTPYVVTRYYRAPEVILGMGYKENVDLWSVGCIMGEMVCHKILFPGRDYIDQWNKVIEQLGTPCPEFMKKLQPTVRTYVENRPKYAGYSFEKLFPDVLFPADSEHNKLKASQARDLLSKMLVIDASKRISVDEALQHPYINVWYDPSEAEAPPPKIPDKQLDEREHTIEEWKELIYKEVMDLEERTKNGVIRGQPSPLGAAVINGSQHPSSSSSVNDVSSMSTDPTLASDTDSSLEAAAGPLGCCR
`COC[C@H]1CC[C@@H](Nc2nc(NC3CCN(C(C)=O)CC3)ncc2C(N)=O)CC1` [Example A-83, 2-(1-acetylpiperidin-4-ylamino)-4-((1s,4s)-4-(methoxymethyl)cyclohexylamino)pyrimidine-5-carboxamide] showed an IC50 of 200 to 800 nM.
In the case of `COC[C@H]1CC[C@@H](Nc2nc(N[C@@H]3CCN(C(C)=O)C3)ncc2C(N)=O)CC1` [Example A-84, 2-((R)-1-acetylpyrrolidin-3-ylamino)-4-((1s,4S)-4-(methoxymethyl)cyclohexylamino)pyrimidine-5-carboxamide], the IC50 is reported as 200 to 800 nM.
With `COC[C@H]1CC[C@H](Nc2ncc(C(N)=O)c(N[C@H]3CCN(C(C)=O)C3)n2)CC1` [Example A-85, 4-((S)-1-acetylpyrrolidin-3-ylamino)-2-((1r,4S)-4-(methoxymethyl)cyclohexylamino)pyrimidine-5-carboxamide] the IC50 was 200 to 800 nM.
`CC(C)CC(=O)N1CCC(Nc2nc(N[C@@H]3CC[C@@H](O)C3)ncc2C(N)=O)CC1` [Example A-86, 2-((1R,3R)-3-hydroxycyclopentylamino)-4-(1-(3-methylbutanoyl)piperidin-4-ylamino)pyrimidine-5-carboxamide] showed an IC50 of 200 to 800 nM.
Compound `CC(C)CC(=O)N1CCC(Nc2ncc(C(N)=O)c(N[C@H]3CC[C@@H](O)C3)n2)CC1` [Example A-87, 4-((1S,3R)-3-hydroxycyclopentylamino)-2-(1-(3-methylbutanoyl)piperidin-4-ylamino)pyrimidine-5-carboxamide] has an IC50 of less than 200 nM.
With `CC(C)CNc1nc(N[C@H]2CC[C@H](O)CC2)ncc1C(N)=O` [Example A-88, 2-((1r,4r)-4-hydroxycyclohexylamino)-4-(isobutylamino)pyrimidine-5-carboxamide] the IC50 was less than 200 nM.
`CCC(=O)N1CCC(Nc2ncc(C(N)=O)c(N[C@H]3CC[C@@H](O)CC3)n2)CC1` [Example A-89, 4-((1s,4s)-4-hydroxycyclohexylamino)-2-(1-propionylpiperidin-4-ylamino)pyrimidine-5-carboxamide] showed an IC50 of less than 200 nM.
`CCC(=O)N1CCC(Nc2nc(N[C@H]3CC[C@H](O)CC3)ncc2C(N)=O)CC1` [Example A-90, 2-((1r,4r)-4-hydroxycyclohexylamino)-4-(1-propionylpiperidin-4-ylamino)pyrimidine-5-carboxamide] was tested, and the IC50 was less than 200 nM.
`CO[C@H]1CC[C@H](Nc2ncc(C(N)=O)c(N[C@H]3CCC[C@@H]3O)n2)CC1` [Example A-91, 4-((1S,2S)-2-hydroxycyclopentylamino)-2-((1r,4S)-4-methoxycyclohexylamino)pyrimidine-5-carboxamide] showed an IC50 of less than 200 nM.
Work on `COC[C@H]1CC[C@H](Nc2ncc(C(N)=O)c(N[C@H]3CCC[C@@H]3O)n2)CC1` [Example A-92, 4-((1S,2S)-2-hydroxycyclopentylamino)-2-((1r,4S)-4-(methoxymethyl)cyclohexylamino)pyrimidine-5-carboxamide] yielded an IC50 of less than 200 nM.
Compound `COC[C@H]1CC[C@H](Nc2ncc(C(N)=O)c(N[C@H]3CCC(O)C3)n2)CC1` (stereo partly drawn) [Example A-94, 4-((1S,3R)-3-hydroxycyclopentylamino)-2-((1r,4S)-4-(methoxymethyl)cyclohexylamino)pyrimidine-5-carboxamide] has an IC50 of less than 200 nM.
Compound `CCO[C@H]1CC[C@@H](Nc2nc(N[C@@H]3CC[C@@H](O)C3)ncc2C(N)=O)CC1` [Example A-95, 4-((1s,4S)-4-ethoxycyclohexylamino)-2-((1R,3R)-3-hydroxycyclopentylamino)pyrimidine-5-carboxamide] has an IC50 of less than 200 nM.
`CCO[C@H]1CC[C@H](Nc2ncc(C(N)=O)c(N[C@@H]3CCC(O)C3)n2)CC1` (stereo partly drawn) [Example A-96, 2-((1r,4R)-4-ethoxycyclohexylamino)-4-((1R,3S)-3-hydroxycyclopentylamino)pyrimidine-5-carboxamide] showed an IC50 of less than 200 nM.
`CO[C@H]1CC[C@@H](Nc2nc(N[C@@H]3CC[C@@H](CO)C3)ncc2C(N)=O)CC1` [Example A-97, 2-((1R,3R)-3-(hydroxymethyl)cyclopentylamino)-4-((1s,4S)-4-methoxycyclohexylamino)pyrimidine-5-carboxamide] gave an IC50 of less than 200 nM.
Compound `CO[C@H]1CC[C@H](Nc2ncc(C(N)=O)c(N[C@H]3CC[C@H](CO)C3)n2)CC1` [Example A-98, 4-((1S,3S)-3-(hydroxymethyl)cyclopentylamino)-2-((1r,4S)-4-methoxycyclohexylamino)pyrimidine-5-carboxamide] has an IC50 of less than 200 nM.
`COC[C@H]1CC[C@@H](Nc2nc(N[C@H]3CCC(O)C3)ncc2C(N)=O)CC1` (stereo partly drawn) [Example A-99, 2-((1S,3S)-3-hydroxycyclopentylamino)-4-((1s,4R)-4-(methoxymethyl)cyclohexylamino)pyrimidine-5-carboxamide] was tested, and the IC50 was less than 200 nM.
Compound `CO[C@H]1CC[C@@H](Nc2nc(N[C@H]3CC[C@H](O)CC3)ncc2C(N)=O)CC1` [Example A-100, 2-((1r,4r)-4-hydroxycyclohexylamino)-4-((1s,4s)-4-methoxycyclohexylamino)pyrimidine-5-carboxamide] has an IC50 of less than 200 nM.
In the case of `CO[C@H]1CC[C@H](Nc2ncc(C(N)=O)c(N[C@H]3CC[C@@H](O)CC3)n2)CC1` [Example A-101, 4-((1s,4s)-4-hydroxycyclohexylamino)-2-((1r,4r)-4-methoxycyclohexylamino)pyrimidine-5-carboxamide], the IC50 is reported as less than 200 nM.
In the case of `CCO[C@H]1CC[C@H](Nc2ncc(C(N)=O)c(NC[C@H](C)O)n2)CC1` [Example A-102, 2-((1r,4S)-4-ethoxycyclohexylamino)-4-((S)-2-hydroxypropylamino)pyrimidine-5-carboxamide], the IC50 is reported as less than 200 nM.
`CCO[C@H]1CC[C@H](Nc2ncc(C(N)=O)c(N[C@H]3CCC[C@@H]3OC)n2)CC1` [Example A-103, 2-((1r,4S)-4-ethoxycyclohexylamino)-4-((1S,2S)-2-methoxycyclopentylamino)pyrimidine-5-carboxamide] showed an IC50 of less than 200 nM.
With `CCO[C@H]1CC[C@H](Nc2ncc(C(N)=O)c(N[C@@H]3CCC[C@@H]3O)n2)CC1` [Example A-104, 2-((1r,4R)-4-ethoxycyclohexylamino)-4-((1R,2S)-2-hydroxycyclopentylamino)pyrimidine-5-carboxamide] the IC50 was less than 200 nM.
`CCO[C@H]1CC[C@H](Nc2ncc(C(N)=O)c(N[C@H]3CCOC3)n2)CC1` [Example A-105, 2-((1r,4S)-4-ethoxycyclohexylamino)-4-((S)-tetrahydrofuran-3-ylamino)pyrimidine-5-carboxamide] showed an IC50 of less than 200 nM.
Compound `CCO[C@H]1CC[C@@H](Nc2nc(NC(C)(C)CO)ncc2C(N)=O)CC1` [Example A-106, 4-((1s,4s)-4-ethoxycyclohexylamino)-2-(1-hydroxy-2-methylpropan-2-ylamino)pyrimidine-5-carboxamide] has an IC50 of 200 to 800 nM.
`CC(C)CC(=O)N1CCC(Nc2ncc(C(N)=O)c(NC3CCC3)n2)CC1` [Example A-107, 4-(cyclobutylamino)-2-(1-(3-methylbutanoyl)piperidin-4-ylamino)pyrimidine-5-carboxamide] was tested, and the IC50 was less than 200 nM.
For `NC[C@H]1CC[C@@H](Nc2nc(NC3CCOCC3)ncc2C(N)=O)CC1` [Example A-108, 4-((1s,4s)-4-(aminomethyl)cyclohexylamino)-2-(tetrahydro-2H-pyran-4-ylamino)pyrimidine-5-carboxamide], the IC50 was less than 200 nM.
`COC[C@H]1CC[C@@H](Nc2nc(N[C@H]3CC[C@H](O)CC3)ncc2C(N)=O)CC1` [Example A-109, 2-((1r,4r)-4-hydroxycyclohexylamino)-4-((1s,4s)-4-(methoxymethyl)cyclohexylamino)pyrimidine-5-carboxamide] gave an IC50 of less than 200 nM.
